According to patent publication US9447075B2, “Pyridazine derivatives as EAAT2 activators” (The Brigham and Women's Hospital, Inc., priority 2011, dated 2016):

Legend:
EAAT2 = EAAT2 protein levels and glutamate uptake in primary dissociated neuron and astrocyte mixed cultures; format: cell-based; conditions: seven day-old mixed cultures, serum-free media, 48 hr
Procedure: We next evaluated Compound 212320 in primary dissociated neuron and astrocyte mixed cultures. Seven day-old cultures were treated with Compound 212320 in serum-free media for 48 hr. As shown in FIG. 7A-B, Compound 212320 increased EAAT2 protein levels and glutamate uptake function.

[1] = test system: male FVB mice, pilocarpine-induced SE; assay: Epilepsy model (pilocarpine-induced status epilepticus mouse model); format: in vivo
Procedure: Eight- to ten-week-old male FVB mice (22-32 g) received the 1st and 2nd injections of Compound 212320 (at 40 mg/kg in the formulation described above) at 20 and 3 hr prior to induction of seizure with pilocarpine (290 mg/kg, i.p., Sigma). To reduce peripheral cholinergic effects without interfering with the development of SE and chronic seizures, mice received (−) scopolamine methyl nitrate (1.5 mg/kg, Sigma, St. Louis, Mo.) 30 min prior to pilocarpine injection. Control animals were injected with scopolamine followed by saline, instead of pilocarpine. Mice were then observed for 2 hr to record acute seizure severity and latency period. The Racine scale (see Racine, R. J. Modification of seizure activity by electrical stimulation. II. Motor seizure. Electroencephalogr Clin Neurophysiol 32, 281-294 (1972)) was used to rate seizure severity as previously described in Kong, Q., et al. Increased glial glutamate transporter EAAT2 expression reduces epileptogenic processes following pilocarpine-induced status epilepticus. Neurobiol Dis (2012)).
Mice that reached SE and maintained tonic limbic extension for at least 60 min were kept and treated with compound daily for chronic seizure and pathological studies. The SE mice were fed with food soaked in a high sucrose (10%) saline solution to help recovery in the first 3 days after SE. Vehicle-treated SE mice and compound-treated SE littermates were carefully matched based on the body weight, seizure latency, seizure severity, and post-SE sickness.
Chronic seizure activities were recorded by webcam (Logitech, Fremont, Calif.) and reviewed using Windows Live Movie Maker. Daylight periods (9 AM-5 PM) were selected for observations because previous literature indicates a higher frequency of spontaneous recurrent seizures during the day (see Kong, Q., et al. Increased glial glutamate transporter EAAT2 expression reduces epileptogenic processes following pilocarpine-induced status epilepticus. Neurobiol Dis (2012); and Shapiro, L. A., Figueroa-Aragon, S. & Ribak, C. E. Newly generated granule cells show rapid neuroplastic changes in the adult rat dentate gyrus during the first five days following pilocarpine-induced seizures. Eur J Neurosci 26, 583-592 (2007)). At 8 weeks post-SE, brain tissue was harvested from SE mice for cresyl violet staining
Referring to FIG. 3, Compound 212320 reduced mortality rate, spontaneous recurrent seizure and neuronal death following pilocarpine-induced SE. Adult male FVB mice received Compound 212320 (i.p., 40 mg/kg), 3-hr later, were induced seizures with pilocarpine and were then observed for 2 hr to record acute seizure severity and latency period. The Racine scale was used to rate the seizure severity (described above). Mice that reached SE were treated with compound daily and at 4-week post-SE, were recorded chronic seizures for 2 weeks. A total of 15 independent experiments were performed, with a total of 153 vehicle-treated mice and 152 compound 7-4-treated mice. […] FIGS. 3(D-F) show spontaneous recurrent seizure. […] FIGS. 3(G-H) show hippocampal damage.

CYP1A2 = target: T1, CYP1A2 (Homo sapiens, UniProt P05177); assay: In vitro side effect profiling: CYP1A2; format: in vitro ADME; conditions: duplicate, read-out: inhibition on cytochrome p450 CYP1A2
T1 sequence (P05177 1-516): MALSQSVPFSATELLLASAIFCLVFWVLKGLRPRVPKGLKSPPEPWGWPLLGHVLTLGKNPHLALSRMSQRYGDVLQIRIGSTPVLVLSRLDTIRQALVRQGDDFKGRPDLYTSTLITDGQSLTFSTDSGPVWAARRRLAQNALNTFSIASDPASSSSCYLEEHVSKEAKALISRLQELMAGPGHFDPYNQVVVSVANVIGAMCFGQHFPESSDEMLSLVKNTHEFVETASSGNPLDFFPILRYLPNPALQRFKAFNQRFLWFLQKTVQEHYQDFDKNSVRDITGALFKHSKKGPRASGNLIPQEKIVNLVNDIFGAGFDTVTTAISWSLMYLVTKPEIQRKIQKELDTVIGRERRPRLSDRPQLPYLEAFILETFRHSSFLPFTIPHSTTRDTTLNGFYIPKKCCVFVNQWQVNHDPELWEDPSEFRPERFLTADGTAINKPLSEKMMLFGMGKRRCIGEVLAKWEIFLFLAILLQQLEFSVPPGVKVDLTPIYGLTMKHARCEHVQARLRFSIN
Procedure: To assess Compound 212320's biological activity and selectivity, we performed an in vitro side effect profiling study. Seventy-one targets were tested at 10 μM in duplicate. These targets include neurotransmitter related receptors (30), steroids (2), ion channels (6), second messenger (1), prostaglandins (3), growth factors/hormones (4), brain/gut peptides (13), enzymes (5) and cytochrome p450 (7). […] Additionally, we performed a protein kinase profiling study. Compound 212320 was tested at 1 and 10 μM against 288 kinases. […] These studies indicate that Compound 212320 has high specificity and low side-effects/toxicity potential.

[2] = test system: GFAP, GS, EAAT1, GAPDH, SOD1, actin, YB-1, RNA polymerase II, synaptophysin, EAAT3, EAAT4, PSD95, AKT, PI3K, IkB-α, ERK2; assay: Total protein and expression of other proteins (global protein synthesis); format: in vivo, mouse
Description: Furthermore, the following observations indicate that the effects of Compound 212320 on EAAT2 protein expression were not due to a general increase in protein synthesis. First, the total amount of protein in compound-treated cells and mice was not increased compared with that in vehicle-treated cells and mice. Secondly, we examined the expression of a variety of other proteins in mouse brains: astrocyte-specific proteins including GFAP, glutamine synthetase (GS), and EAAT1 (another astrocytic glutamate transporter subtype), several housekeeping proteins including GAPDH, SOD1, actin, YB-1, RNA polymerase II, several neuronspecific proteins including synaptophysin, EAAT3 (a neuronal glutamate transporter), EAAT4, PSD95, and several signaling proteins including AKT, PI3K, IkB-α and ERK2.

Cc1ccccc1CSc1ccc(-c2ccccn2)nn1 [Compound 7-4]
EAAT2 protein levels (EAAT2): increased
Glutamate uptake function (EAAT2): increased
Hippocampal damage (hilar neuronal loss, cresyl violet) ([1]; 8 weeks post-SE): significantly attenuated
Chronic seizure frequency (stage V spontaneous recurrent seizures) ([1]; daily treatment, recorded from 4-week post-SE for 2 weeks): significantly reduced
Mortality rate vs vehicle ([1]; day 7 post-SE): significantly decreased
Mortality rate vs vehicle ([1]; day 60 post-SE): significantly decreased
Latency to indicated seizure stage vs vehicle ([1]; i.p., 40 mg/kg): not significantly different
Acute seizure severity (percentage of mice reaching each seizure stage) vs vehicle ([1]; i.p., 40 mg/kg, within 2-hr after pilocarpine): not significantly different
Mortality rate vs vehicle ([1]; on the day that SE was induced): no obvious difference
inhibition at 10 µM (CYP1A2): 69%
Induction of other proteins in mouse brains ([2]; FIG. 8F): None of the above proteins were induced
Total amount of protein vs vehicle ([2]; compound-treated cells and mice): not increased
